In patent US20110136727A1, “Compositions and methods for rapid selection of pathogen binding agents” (priority 2009, published 2011):
Where no end group is shown, it is not given here.

What was measured:
[1] = tested on: E. coli O111:B4; experiment: In vitro growth inhibition assay (turbidity at 600 nm); assay type: cell-based; details: added at mid-logarithmic phase, QF8 at 25 micrometers, NEG-1 at 100 micrometers, Construct 1 at 7, 10, and 25 micrometers, vs untreated bacteria
Method: FIG. 6. Bacterial growth inhibition assays in presence of (a) growth media; (b) negative control peptide NEG1 at 100 micromolar; (c) 25 micromolar peptide QF8 (SEQ ID NO: 33 Table 2); (d) 7 micrommolar QF8-PEG Construct 1; (e) 10 micromolar QF8-PEG Construct 1; (f) 17.5 micromolar QF8-PEG construct 1; (g) 25 micromolar QF8-PEG Construct 1; (h) 100 IU penicillin/streptomycin as a positive control.
In vitro growth inhibition assays. Growth of E. coli O111:B4 was assessed in the presence of different concentrations of NEG-1, QF8, and Construct 1 using turbidity at 600 nm. […]
In vitro inhibition assays. […] Growth was monitored as turbidity at 600 nm. Experiments were performed at 30 degrees Centigrade in microtiter plates with 100 microliters of culture using a Spectra Max Plus microtiter plate reader with Soft Max Pro Software (Molecular devices). The turbidity was measured every 5 minutes and the plate was shaken for 30 seconds before each measurement. Bacteria concentration was calculated according to the McFarland general method using the absorbance at 600 nm of a series of mixtures of 1% barium chloride and 1% sulfuric acid.

[2] = Serum stability (serum incubation and western blot); assay type: in vitro ADME, human
Method: Serum stability of Construct 1. Over the last decade, there was a considerable interest in developing antimicrobial peptides as intravenously administered antibiotics. In this respect, a common criticism of peptide-based drugs has been their susceptibility to endogenous proteases. […] To test the in vitro stability of Construct 1 we used a serum-incubation and western blot analysis. Construct 1 was incubated in fresh human serum at 37° C. and pH=7.4 with a starting concentration of 10 μM. Samples were withdrawn at predetermined time points and each sample diluted 20-fold with loading buffer prior to analysis by western blot (FIG. 7).

[3] = tested on: LPS; details: Morales et al., 2009; cited from earlier work

| Substance | Growth of E. coli O111:B4 (growth curves, bacterial count) [1] | Time for which proteolysis was resisted ([2]; fresh human serum, 37° C., pH=7.4, starting concentration 10 μM, western blot) | Degradation in human serum, monomeric peptide vs tetravalent PEG scaffold ([2]; human serum, western blot probed with Streptavidin-AlexaFluor 647 (FIG. 7)) | Binding to the bacteria and to LPS [3] |
| --- | --- | --- | --- | --- |
| Construct 1: tetravalent mPEG-maleimide (MW 20 kDa) conjugated with QF8 peptide (HRKPKFRHHHFKWKHWKGSC; also: conjugated with tetravalent 20 kDa mPEG-maleimide) | dramatic decrease in bacterial count | more than 8 hours | prolonged the half-life |  |
| EFSNPTAQVFPDFWMSDGSC [NEG-1, negative control peptide, reference compound] | no changes |  |  | bind neither to the bacteria nor to LPS |
